Results published in US20140255392A1 (BAYER INTELLECTUAL PROPERTY GMBH, priority 2011, published 2014).

Target: T1, human kinase Mps-1 (Homo sapiens, UniProt P33981)
T1 construct: N-terminally GST-tagged human full length recombinant Mps-1 kinase; GST (N); purchased Invitrogen, Karslruhe, Germany PV4071
T1 sequence (P33981 1-857): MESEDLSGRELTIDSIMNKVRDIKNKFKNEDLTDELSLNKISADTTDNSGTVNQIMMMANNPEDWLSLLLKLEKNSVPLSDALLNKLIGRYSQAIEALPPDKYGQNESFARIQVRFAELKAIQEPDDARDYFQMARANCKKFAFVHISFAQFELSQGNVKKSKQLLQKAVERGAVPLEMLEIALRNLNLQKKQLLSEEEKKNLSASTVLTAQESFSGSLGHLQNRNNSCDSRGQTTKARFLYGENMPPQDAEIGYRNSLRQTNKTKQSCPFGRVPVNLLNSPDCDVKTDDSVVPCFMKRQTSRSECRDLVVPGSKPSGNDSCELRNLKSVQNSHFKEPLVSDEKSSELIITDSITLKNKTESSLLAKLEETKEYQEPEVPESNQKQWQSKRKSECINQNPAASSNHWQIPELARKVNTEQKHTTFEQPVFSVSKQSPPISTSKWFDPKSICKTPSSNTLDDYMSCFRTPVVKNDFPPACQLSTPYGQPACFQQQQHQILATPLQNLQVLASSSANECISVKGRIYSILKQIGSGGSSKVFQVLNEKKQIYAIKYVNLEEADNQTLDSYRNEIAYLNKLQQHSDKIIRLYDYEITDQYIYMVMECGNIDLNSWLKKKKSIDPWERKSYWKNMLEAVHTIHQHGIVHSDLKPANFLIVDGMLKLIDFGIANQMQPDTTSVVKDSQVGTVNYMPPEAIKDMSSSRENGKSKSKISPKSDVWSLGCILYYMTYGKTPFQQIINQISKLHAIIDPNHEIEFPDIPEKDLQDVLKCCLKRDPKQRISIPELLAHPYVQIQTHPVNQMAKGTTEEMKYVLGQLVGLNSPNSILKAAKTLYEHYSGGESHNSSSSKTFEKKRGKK
Experiment: Mps-1 kinase assay (TR-FRET)
Assay type: biochemical
Conditions: N-terminally GST-tagged human full length recombinant Mps-1; 10 μM ATP; 1 μM peptide substrate; 60 min at 22° C.
Outline: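 Kinase activity of N-terminally GST-tagged full-length recombinant Mps-1, used at about 1 nM final and set within the linear range, was measured on a biotinylated peptide substrate. Phosphopeptide was detected by TR-FRET from Eu-anti-phospho(Ser/Thr) antibody to streptavidin-XLent after 1 h at 22° C.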

IC50 [nM]	Molecule
2	COc1ccc(Oc2cc(NCCC(F)(F)F)c3ncc(-c4ccc(C(=O)N[C@H]5C[C@@H]5C)c(C)c4)n3c2)cc1F (relative stereo) [Example 125, 4-{6-(3-fluoro-4-methoxyphenoxy)-8-[(3,3,3-trifluoropropyl)amino]imidazo[1,2-a]pyridin-3-yl}-2-methyl-N-[rel-(1S,2S)-2-methylcyclopropyl]benzamide]
21.1	CNC(=O)c1ccc(-c2cnc3c(NCCC(F)(F)F)cc(-c4ccc(C(=O)NC5(CO)CC5)c(C)c4)cn23)cc1C [Example 155, 4-{6-(4-{[1-(hydroxymethyl)cyclopropyl]carbamoyl}-3-methylphenyl)-8-[(3,3,3-trifluoropropyl)amino]imidazo[1,2-a]pyridin-3-yl}-N,2-dimethylbenzamide]
35.6	COc1ccccc1-c1cc(NCCC(F)(F)F)c2ncc(-c3ccc(C(=O)NC4(C)CC4)c(C)c3)n2c1 [Example 80]
6.2	CNC(=O)c1ccc(-c2cnc3c(NCCC(F)(F)F)cc(-c4ccc(C(=O)NC5CC5)c(C)c4)cn23)cc1C [Example 158, 4-{6-[4-(cyclopropylcarbamoyl)-3-methylphenyl]-8-[(3,3,3-trifluoropropyl)amino]imidazo[1,2-a]pyridin-3-yl}-N,2-dimethylbenzamide]
0.5	CNC(=O)c1ccc(-c2cc(NCCC(F)(F)F)c3ncc(-c4ccc(C(=O)NC5CC5)c(C)c4)n3c2)cc1C [Example 147, 4-{3-[4-(cyclopropylcarbamoyl)-3-methylphenyl]-8-[(3,3,3-trifluoropropyl)amino]imidazo[1,2-a]pyridin-6-yl}-N,2-dimethylbenzamide]
70.3	CCNC(=O)c1ccc(-c2cnc3c(NCCC(F)(F)F)cc(Oc4ccc(OC(F)(F)F)c(F)c4)cn23)cc1C [Example 87, N-ethyl-4-{6-[3-fluoro-4-(trifluoromethoxy)phenoxy]-8-[(3,3,3-trifluoropropyl)amino]imidazo[1,2-a]pyridin-3-yl}-2-methylbenzamide]
68.7	Cc1cc(-c2cnc3c(NCCC(F)(F)F)cc(Oc4ccc(OC(F)(F)F)c(F)c4)cn23)ccc1C(=O)NC1CC1 [Example 83, N-cyclopropyl-4-{6-[3-fluoro-4-(trifluoromethoxy)phenoxy]-8-[(3,3,3-trifluoropropyl)amino]imidazo[1,2-a]pyridin-3-yl}-2-methylbenzamide]
42.2	CCNC(=O)c1ccc(-c2cnc3c(NCCC(F)(F)F)cc(/C=C\CO)cn23)cc1C [Example 120, N-ethyl-4-{6-[(12)-3-hydroxyprop-1-en-1-yl]-8-[(3,3,3-trifluoropropyl)amino]imidazo[1,2-a]pyridin-3-yl}-2-methylbenzamide]
2.3	Cc1cc(-c2cnc3c(NCC(F)F)cc(Oc4cccc(F)c4)cn23)ccc1C(=O)NC1CC1 [Example 161, N-cyclopropyl-4-{8-[(2,2-difluoroethyl)amino]-6-(3-fluorophenoxy)imidazo[1,2-a]pyridin-3-yl}-2-methylbenzamide]
4.6	N-cyclopropyl-4-{8-[(2,2-difluoroethyl)amino]-6-(2,5-difluorophenoxy)imidazo[1,2-a]pyridin-3-yl}-2-methylbenzamide [Example 166]
7.6	Cc1ccc(F)cc1Oc1cc(NCCC(F)(F)F)c2ncc(-c3ccc(C(=O)NC4CCC4)c(C)c3)n2c1 [Example 47, N-cyclobutyl-4-{6-(5-fluoro-2-methylphenoxy)-8-[(3,3,3-trifluoropropyl)amino]imidazo[1,2-a]pyridin-3-yl}-2-methylbenzamide]
19.9	Cc1cc(-c2cnc3c(NCCC(F)(F)F)cc(/C=C\CO)cn23)ccc1C(=O)N[C@@H]1C[C@H]1F (relative stereo) [Example 118, N-[rel-(1R,2R)-2-fluorocyclopropyl]-4-{6-[(1Z)-3-hydroxyprop-1-en-1-yl]-8-[(3,3,3-trifluoropropyl)amino]imidazo[1,2-a]pyridin-3-yl}-2-methylbenzamide]
84.3	C=Cc1cc(NCCC(F)(F)F)c2ncc(-c3ccc(C(=O)NCC)c(C)c3)n2c1 [Example 94, N-ethyl-2-methyl-4-{8-[(3,3,3-trifluoropropyl)amino]-6-vinylimidazo[1,2-a]pyridin-3-yl}benzamide]
233	CNC(=O)c1ccc(-c2cnc3c(NCCC(F)(F)F)cc(C(C)O)cn23)cc1C (racemic) [Example 144, 4-{6-[(1RS)-1-Hydroxyethyl]-8-[(3,3,3-trifluoropropyl)amino]imidazo[1,2-a]pyridin-3-yl}-N,2-dimethylbenzamide]
15.9	Cc1cc(-c2cnc3c(NCCC(F)(F)F)cc(-c4ccncc4)cn23)ccc1C(=O)NC1(C)CC1 [Example 90]
1.2	CCNC(=O)c1ccc(-c2cnc3c(NCCC(F)(F)F)cc(Oc4cccc(F)c4F)cn23)cc1C [Example 73, 4-{6-(2,3-Difluorophenoxy)-8-[(3,3,3-trifluoropropyl)amino]imidazo[1,2-a]pyridin-3-yl}-N-ethyl-2-methylbenzamide]
124	CCNC(=O)c1ccc(-c2cnc3c(NCCC(F)(F)F)cc(Oc4ccc(OC(F)(F)F)cc4)cn23)cc1C [Example 68, N-ethyl-2-methyl-4-{6-[4-(trifluoromethoxy)phenoxy]-8-[(3,3,3-trifluoropropyl)amino]imidazo[1,2-a]pyridin-3-yl}benzamide]
2.9	CNC(=O)c1ccc(-c2cnc3c(NCCC(F)(F)F)cc(Oc4cccc(OC)c4)cn23)cc1C [Example 55, 4-{6-(3-Methoxyphenoxy)-8-[(3,3,3-trifluoropropyl)amino]imidazo[1,2-a]pyridin-3-yl}-N,2-dimethylbenzamide]
9.8	CNC(=O)c1ccc(-c2cnc3c(NCCC(F)(F)F)cc(-c4ccncc4)cn23)cc1C [Example 88, N,2-dimethyl-4-{6-(pyridin-4-yl)-8-[(3,3,3-trifluoropropyl)amino]imidazo[1,2-a]pyridin-3-yl}benzamide]
0.8	Cc1cc(-c2cnc3c(NCCC(F)(F)F)cc(Sc4cccc(F)c4)cn23)ccc1C(=O)NC1CC1 [Example 3-5]
1.6	CNC(=O)c1ccc(-c2cnc3c(NCCC(F)(F)F)cc(Oc4ccc(OC)c(F)c4)cn23)cc1C [Example 106, 4-{6-(3-Fluoro-4-methoxyphenoxy)-8-[(3,3,3-trifluoropropyl)amino]imidazo[1,2-a]pyridin-3-yl}-N,2-dimethylbenzamide]
9.4	C/C=C/c1cc(NCCC(F)(F)F)c2ncc(-c3ccc(C(=O)N[C@H]4C[C@@H]4C)c(C)c3)n2c1 (relative stereo) [Example 117, 2-Methyl-N-[rel-(1S,2S)-2-methylcyclopropyl]-4-{6-[(1E)-prop-1-en-1-yl]-8-[(3,3,3-trifluoropropyl)amino]imidazo[1,2-a]pyridin-3-yl}benzamide]
11.1	Cc1cc(-c2cnc3c(NCCC(F)(F)F)cc(Oc4cccc(F)c4)cn23)ccc1C(=O)NC1CCC1 [Example 24, N-cyclobutyl-4-{6-(3-fluorophenoxy)-8-[(3,3,3-trifluoropropyl)amino]imidazo[1,2-a]pyridin-3-yl}-2-methylbenzamide]
0.3	Cc1cc(-c2cnc3c(NCCC(F)(F)F)cc(Sc4cccc(F)c4F)cn23)ccc1C(=O)NC1CC1 [Example 3-2, N-cyclopropyl-4-{6-[(2,3-difluorophenyl)sulfanyl]-8-[(3,3,3-trifluoropropyl)amino]imidazo[1,2-a]pyridin-3-yl}-2-methylbenzamide]
1.4	CCNC(=O)c1ccc(-c2cnc3c(NCCC(F)(F)F)cc(Oc4ccc(O)c(F)c4)cn23)cc1C [Example 131, N-ethyl-4-{6-(3-fluoro-4-hydroxyphenoxy)-8-[(3,3,3-trifluoropropyl)amino]imidazo[1,2-a]pyridin-3-yl}-2-methylbenzamide]
6.9	CCNC(=O)c1ccc(-c2cnc3c(NCCC(F)(F)F)cc(-c4ccncc4)cn23)cc1C [Example 89, N-ethyl-2-methyl-4-{6-(pyridin-4-yl)-8-[(3,3,3-trifluoropropyl)amino]imidazo[1,2-a]pyridin-3-yl}benzamide]
49.8	CCc1cc(NCCC(F)(F)F)c2ncc(-c3ccc(C(=O)N[C@H]4C[C@@H]4C)c(C)c3)n2c1 (relative stereo) [Example 105, 4-{6-Ethyl-8-[(3,3,3-trifluoropropyl)amino]imidazo[1,2-a]pyridin-3-yl}-2-methyl-N-[rel-(1S,2S)-2-methylcyclopropyl]benzamide]
